# Experimental data published in US5376658A, “5,10-methylene-tetrahydrofolate as a modulator of a chemotherapeutic agent” (priority 1993, dated 1994).
# Read-outs that look alike come from different tables or passages of the source.
# Columns and labels:
# [1] = target: T1, thymidylate synthase (TS) (Mus musculus, UniProt P07607); experiment: TS inhibition in murine colon carcinoma tumor CA51 (Tumor 51) after i.p. 5-FU with or without CH2 FH4; assay type: in vivo; conditions: for Free TS / inhibition at 80 mg/kg: 5-FU 80 mg/kg i.p.; for Free TS: CH2 FH4 27 mg/kg in (6R), not corrected; for inhibition at 80 mg/kg: mouse, ip, baseline total TS 10.00 pmol/g
# T1 construct: [6-3H]FdUMP titration of free TS
# Protocol: (6R, S)-CH2 FH4 was prepared by the DEAE-cellulose column procedure, described above, using step-elution of the material as previously reported for purification of nucleotides (Moran et al., Proc. Natl. Aca. Sci. USA 76:1456-60 (1979)). […] Because of the high formaldehyde, this solution was over 2 mM in CH2 FH4, with less FH4 present as the solution isomer. After 20 min at room temperature, this solution was applied to a 1×3-cm DEAE-cellulose column; in the last step, the 500 mM NH4HCO3 (pH 8.0) fraction (30 mL) was pooled, lyophilized to dryness, and stored under vacuum in glass ampoules. This fraction contains both diastereomers of CH2 FH4.
# On the day of reconstituting the above CH2 FH4, mice bearing subcutaneous murine colon carcinoma Tumor 51 were administered intraperitoneal (i.p.) 5-FU, with or without concomitant i.p. CH2 FH4 by separate injection. The 5-FU was given at a dose of 1.6 mg per mouse, about 80 mg/kg. The CH2 FH4 was given at a dose of 0.5 mL of the 2.4 mM material ([…]), above. The in vivo methodologies were essentially as had previously been described (C. P. Spears, et al., Cancer Res. 42:450-56 (1982)). […] The levels of apparent free TS in tumors of mice receiving CH2 FH4 concomitant with 5-FU were at, or below, that level due to exchange-labeling of endogenous TS-FdUMP-folate ternary complexes in the cytosolic extracts. […] This is exactly the qualitative difference between sensitivity and resistance to 5-FU previously established (see Spears et al., Cancer Res. 42:450-52 (1982)).
# [2] = tested on: hepatic colonic carcinoma; experiment: Tumor weight in rats bearing transplanted hepatic colonic carcinoma; assay type: in vivo, rat; conditions: Day 17 after transplantation; 30 mg/kg each; average of 3 rats; control 5.84
# Text: (§1) The present inventors have considerable experience with this model, and the antitumor effects of 5-FU shown are typical results, as are the TS and folate assays of control and 5-FU-only-treated rats. […] In fact, the "free TS" levels in the (6R,S)-FH4 -only-treated rats were the lowest of all arms of the study.
# >94% by HPLC). The (6 R,S)FH 4 was weighed, dissolved in normal
# saline, and injected daily by tail vein administration using the airfree
# Protector device to prevent oxidative destruction of the folate.
# (§2) ^b Inoculation of 1 × 10^6 viable colon tumor
# (§3) (nitrosoguanidineinduced) cells under the liver capsule on Day 1 (Carlsso
# (§4) et al., Anticancer Res. 10:813-16 (1990)). Animals sacrificed on Day 17
# (§5) for excision of single liver tumor nodules for pharmacodynamic studies.
# [3] = tested on: TS; experiment: TS assay in liver tumors of rats bearing transplanted hepatic colonic carcinoma; assay type: in vivo, rat; conditions: 30 mg/kg each; 24 h after last injection; control 18.96
# Text: as §1, §2, §3, §4, §5
# (§6) ^d Assays done as described (Spears et al. Adv. Exp. Med. Biol.
# [4] = tested on: 5,10-CH2 FH4 and FH4 levels in liver tumor; experiment: Folate assay (5,10-CH2 FH4 and FH4) in liver tumors of rats; assay type: in vivo, rat; conditions: 30 mg/kg each, 24 h after last injection
# Text: as §1, §2, §3, §4, §5, §6
# [5] = target: T1, thymidylate synthase (TS); conditions: murine colon cancer; cited from earlier work
# [6] = target: T2, L. casei TS-[3H]FdUMP (Lacticaseibacillus casei, UniProt P00469); experiment: TS-[3H]FdUMP-folate ternary complex binding assay
# T2 sequence (P00469 1-316): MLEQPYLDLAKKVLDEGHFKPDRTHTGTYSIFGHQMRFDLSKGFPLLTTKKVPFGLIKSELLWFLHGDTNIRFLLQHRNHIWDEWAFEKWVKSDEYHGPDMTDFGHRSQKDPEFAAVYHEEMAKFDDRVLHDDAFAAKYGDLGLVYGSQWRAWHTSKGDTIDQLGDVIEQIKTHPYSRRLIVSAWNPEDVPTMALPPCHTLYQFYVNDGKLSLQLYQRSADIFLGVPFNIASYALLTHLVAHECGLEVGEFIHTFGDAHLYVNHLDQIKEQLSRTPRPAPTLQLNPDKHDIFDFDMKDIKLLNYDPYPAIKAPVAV
# Protocol: The CH2 FH4 was prepared as the racemic (6R, S) material from (6R, S)-FH4 and excess formaldehyde, and DEAE-column isolation as described in FIG. 1. This preparation was essentially free of free formaldehyde based on colorimetric assay of bulk material (Nash, Biochem. J. 55:416-21 (1953)).
# At all concentrations (total assays volume 150 μl ), excess formaldeyde was required to obtain maximal binding (which was still only 19.3% of stoichiometric binding). A notable effect was the increasing need for formaldehyde addition with increasing dilution, to obtain maximal CH2 FH4 assay recovery.
# TS[^3 H]FdUMP-folate ternary complex formation without formaldehyde
# addition was 38.5% of the value for the natural (6R)CH2 FH4 wit
# 6 mM formaldehyde added. (About 1 pmole of parent CH2 FH4 was
# ^b Only 11.8 ± 7.9% of maximal L. casei TS[^3 H]FdUMP-folate
# ternary complex formation (using 6 mM formaldehyde concentration) which i
# (§7) The unnatural diastereomer, (6S)-CH2 FH4 prepared by DEAE-column,potassium bicarbonate separation from the natural diasteromer as described in Example 8, was dissolved in 0.2M Tris-HCl buffer, pH 7.0, containing sodium ascorbate (100 mM) and 2-mercaptoethanol. This preparation was from the same lot of material described in Example 8. As noted in the footnote of Table VII, in the absence of supplemental formaldehyde, the yield of dextrancharcoal isolated complex was 38.5% of the value for the natural (6R)-CH2 FH4 (with added 6 mM formaldehyde).
# [7] = tested on: transplanted colon cancer; experiment: Comparison of natural and unnatural CH2 FH4 diastereomers in rats bearing transplanted colon cancer; assay type: in vivo, rat; conditions: 15 mg/kg, Day 17, no fluorinated pyrimidine
# Text: A study has been completed, for comparison of natural (6R)-CH2 FH4 and unnatural (6S)-CH2 FH4 diastereomers. The preparation of the two forms was done as described by Kisliuk, et al., Cancer Treat. Rep. 61:647-50 (1977), using DEAE-cellulose column chromatography, with elution by potassium bicarbonate buffer. The two separate major peaks were individually pooled, lyophilized to dryness, and used for injection. As in the original detailed description of the method of Kisliuk, et al. (Biochem. 20:929-934), the methylene content was substoichiometric with tetrahydrofolate (FH4). That is, methylene units were present in apparently lower concentration than FH4 concentrations.
# Rats bearing the transplanted colon cancer, as described in Example 4 and in Carlsson, et al., Anticancer. Res. 10:813-816, 1991, were treated with either the (6R)-CH2 FH4 or the (6S)-CH2 FH4, formulated and injected according to the methods described in Table IV, except that the injected amounts were 15 mg/kg per dose.
# At Day 17, the rats were sacrificed, and the tumors were measured for both volume end weight. Volumes were calculated by the equation for an ellipsoid in revolution, V=(4/3)πab^2 were a=the long diameter/2 and b=the perpendicular short diameter/2.
# The filled circles are the weights and volumes of tumors of rats treated with the unnatural (6S)-CH2 FH4 diastereomer (mostly (6R)-FH4 material in dilute solution and blood); the triangles are results for the natural (6R)-CH2 FH4 (mostly (6S)-FH4); and the open circles, control non-treated tumors. It is emphasized here that no fluorinated pyrimidine was used, just the folate injections.
# [8] = target: T3, L. casei TS (Lacticaseibacillus casei, UniProt P00469); experiment: L. casei/dUMP spectrophotometric cofactor assay; assay type: biochemical
# T3 construct: spectrophotometric cofactor assay with dUMP
# T3 sequence (P00469 1-316): T2 sequence (P00469 1-316)
# Protocol: CH2 FH4 as the equal mixture of diastereomers (optical isomers or enantiomers at the C6-position; both diastereomers are of the natural L-configuration at the alpha-carbon position of the glutamate moiety) was prepared from (6R,S)-tetrahydrofolic acid, commercially available from Sigma, in the examples described below. The method of synthesis has been described previously (C. P. Spears and B. Gustavsson, Adv. Exp. Med. Biol. 244:98-104 (1988)). To (6R, S)-tetrahydrofolate (6R, S-FH4) powder, (100 mg) is added 360 μL of 1.0M Na Ascorbate, pH 6.5, 68 μL of 37% (w/w) formaldehyde (CH2 O), and 16 mL phosphate buffer, pH 7.0. A 10-min room temperature incubation allows completion of formation of (6R,S)-CH2 FH4. This material is applied to a DEAE-cellulose column using a modification of a well-known procedure (Kaufman et al., J. Biol. Chem. 238:1498-1500 (1963)). A step elution with NH4 HCO3 buffers of increasing concentration and pH, leads to isolation of CH2 FH4 in the last pooled fraction. […] CH2 FH4, prepared with [^14 C]CH2 O as described previously (Moran et al. Proc. Natl. Acad. Sci. USA 76:1456-60, 1979). […]
# [9] = target: T4, TS (Homo sapiens, UniProt P04818); experiment: TS activity in intact CCRF-CEM human lymphoblast cells by tritiated water release from [5-3H]deoxyuridine; assay type: cell-based; conditions: for tritiated water production: 48 μM; for remaining activity at 48 µM: read-out: tritiated water production, % of control
# T4 construct: activity of TS in the intact cells; endogenous in cells; host or cells: CCRF-CEM human lymphoblast cells
# Protocol: as §7
# Separate cultures tubes at 37° C. with 1 ml each of CCRF-CEM human lymphoblast cells, 4.6×10^5 cells/ml, in exponential log phase growth were exposed to the unnatural diastereomer, (6R)-FH4 (made up from (6S)-CH2 FH4, 1.56 mM stock solution, with 32 microliters added to each ml of cells), 48 μM final concentration. Cells were incubated for 30, 60, and 120 minutes of drug exposure, prior to addition of [5-^3 H]deoxyuridine (150,000 CPM of approx. 18-20 Ci/mmo. spec. act.) and 10 min. 37° C. incubation prior to 3% charcoal addition for isolation of tritiated water. The amount of tritiated water is proportional to the activity of TS in the intact cells (N. Kundu et al., J. Med. Chem. 33:1975-79 (1990)).
# [10] = humans; cited from earlier work
# T4 sequence (P04818 whole entry): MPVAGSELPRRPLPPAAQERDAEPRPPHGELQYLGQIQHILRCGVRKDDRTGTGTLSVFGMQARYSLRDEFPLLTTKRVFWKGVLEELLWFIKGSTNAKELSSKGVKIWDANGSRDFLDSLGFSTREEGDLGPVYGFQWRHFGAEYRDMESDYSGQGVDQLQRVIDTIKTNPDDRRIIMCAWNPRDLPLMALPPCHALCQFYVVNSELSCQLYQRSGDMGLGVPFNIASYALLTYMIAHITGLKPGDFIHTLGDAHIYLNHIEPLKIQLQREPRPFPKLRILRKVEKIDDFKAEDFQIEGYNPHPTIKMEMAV
# T1 sequence (P07607 whole entry): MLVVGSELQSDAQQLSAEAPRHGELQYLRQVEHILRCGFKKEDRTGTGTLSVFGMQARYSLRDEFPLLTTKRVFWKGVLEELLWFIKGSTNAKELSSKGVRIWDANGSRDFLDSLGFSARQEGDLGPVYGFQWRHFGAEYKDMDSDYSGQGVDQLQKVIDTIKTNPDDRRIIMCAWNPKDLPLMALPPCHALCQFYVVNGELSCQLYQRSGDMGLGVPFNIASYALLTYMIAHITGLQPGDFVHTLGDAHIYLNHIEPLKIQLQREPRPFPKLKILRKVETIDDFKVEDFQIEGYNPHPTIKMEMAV
structure (smiles),measurement,setting,value
"O=c1[nH]cc(F)c(=O)[nH]1 [5-FU, 5-Fluorouracil]",Free TS,[1]; 1 h,1.67 pmol/g
same,Free TS,[1]; 3 h,1.00 pmol/g
same,Free TS,[1]; 6 h,1.27 pmol/g
same,"TS inhibition, corrected","[1]; minimal correction factor of 5%, average / all tumors",92%
same,inhibition at 80 mg/kg,"[1]; read-out: % Inhibition (TS), 1 h",83.3%
same,inhibition at 80 mg/kg,"[1]; read-out: % Inhibition (TS), 3 h",90%
same,inhibition at 80 mg/kg,"[1]; read-out: % Inhibition (TS), 6 h",87.3%
same,Tumor weight,[2],1.03 g
same,TS,[3],9.03 p mole/g
same,"5,10-CH2 FH4",[4]; control 0.69,4.11 nmol/g
same,FH4,[4]; control 1.18,2.39 nmol/g
same,TS inhibition as therapeutic mechanism,[5],complete inhibition of TS
Nc1nc2c(c(=O)[nH]1)N1CN(c3ccc(C(=O)N[C@@H](CCC(=O)O)C(=O)O)cc3)C[C@@H]1CN2 [(6S)-CH2 FH4],"TS-[3H]FdUMP-ternary complex yield, % of value for natural (6R)-CH2 FH4 with 6 mM formaldehyde",[6]; in the presence of formaldehyde,23.3%
same,"TS-[3H]FdUMP-folate ternary complex formation, % of value for natural (6R)-CH2 FH4 with 6 mM formaldehyde",[6]; without formaldehyde addition,38.5%
same,Tumor volume ± SE,[7]; control 7.81,0.74
same,Tumor weight ± SE,[7]; control 7.93,2.14
same,cofactor activity,[8],No cofactor activity
same,tritiated water production,"[9]; 30 min exposure, control 2566",2004 CPM
same,tritiated water production,"[9]; 60 min exposure, control 2662",1750 CPM
same,tritiated water production,"[9]; 120 min exposure, control 2902",1146 CPM
same,remaining activity at 48 µM,"[9]; CCRF-CEM, 30 min",78.1%
same,remaining activity at 48 µM,"[9]; CCRF-CEM, 60 min",65.7%
same,remaining activity at 48 µM,"[9]; CCRF-CEM, 120 min",39.5%
same,inhibition at 48 µM,"[9]; CCRF-CEM, two hour time point",60.5%
"C=O [CH2 O, formaldehyde]",oral LDLo (lowest lethal dose),[10],36 mg/kg
